Measured values: patent US10435399B2, “HDAC6 inhibitory heterocyclic compound” (TAKEDA PHARMACEUTICAL COMPANY LIMITED, priority 2017, dated 2019)

What follows are compounds tested against T1, HDAC6 enzyme (Homo sapiens, UniProt Q9UBN7) (assay: HDAC6 enzyme inhibitory activity (HDAC-Glo I/II Assay kit)). Conditions: 10 μM; wells without enzyme = 100% inhibition; read-out: HDAC6 inhibitory rate (%) (10 μM).
T1 construct: transducing full length HDAC6 gene into Sf-9 insect cells; GST; purchased SignalChem; host or cells: Sf-9 insect cells
T1 sequence (Q9UBN7 1-1215): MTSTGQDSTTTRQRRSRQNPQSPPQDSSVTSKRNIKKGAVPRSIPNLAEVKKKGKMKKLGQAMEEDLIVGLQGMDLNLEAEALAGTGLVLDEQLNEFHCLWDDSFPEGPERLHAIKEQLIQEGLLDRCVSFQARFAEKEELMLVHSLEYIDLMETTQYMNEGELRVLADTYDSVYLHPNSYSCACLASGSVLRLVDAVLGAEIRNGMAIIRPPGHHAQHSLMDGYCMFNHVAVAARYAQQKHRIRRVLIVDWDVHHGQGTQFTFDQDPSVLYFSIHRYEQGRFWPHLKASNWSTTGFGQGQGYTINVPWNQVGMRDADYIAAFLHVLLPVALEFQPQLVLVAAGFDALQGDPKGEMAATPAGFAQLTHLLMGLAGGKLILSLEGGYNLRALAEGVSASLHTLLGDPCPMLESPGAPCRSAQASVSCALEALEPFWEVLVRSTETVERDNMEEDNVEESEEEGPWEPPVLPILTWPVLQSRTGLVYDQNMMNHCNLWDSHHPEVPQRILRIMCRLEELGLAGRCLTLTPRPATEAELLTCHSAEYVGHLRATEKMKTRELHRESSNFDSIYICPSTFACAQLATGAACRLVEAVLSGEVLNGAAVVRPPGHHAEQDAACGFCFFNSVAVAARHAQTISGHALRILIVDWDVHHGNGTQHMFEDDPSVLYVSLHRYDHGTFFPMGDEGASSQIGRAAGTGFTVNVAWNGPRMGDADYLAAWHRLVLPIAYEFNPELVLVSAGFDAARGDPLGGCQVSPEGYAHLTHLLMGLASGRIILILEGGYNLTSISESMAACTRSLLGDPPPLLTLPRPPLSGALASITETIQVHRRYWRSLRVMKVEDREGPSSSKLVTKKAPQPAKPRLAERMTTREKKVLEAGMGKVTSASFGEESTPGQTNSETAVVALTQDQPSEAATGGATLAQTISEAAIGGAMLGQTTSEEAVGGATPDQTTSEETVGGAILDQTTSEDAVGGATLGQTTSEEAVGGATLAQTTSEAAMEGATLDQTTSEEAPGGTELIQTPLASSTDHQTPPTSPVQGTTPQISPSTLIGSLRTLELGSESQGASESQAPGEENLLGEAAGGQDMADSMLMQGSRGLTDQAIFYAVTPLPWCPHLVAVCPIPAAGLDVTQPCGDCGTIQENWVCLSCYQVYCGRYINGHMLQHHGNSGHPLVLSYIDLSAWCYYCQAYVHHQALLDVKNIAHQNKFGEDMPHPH
Assay type: biochemical
Outline: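 Inhibition is calculated as relative activity, taking luminescence in enzyme-free wells as complete inhibition. The enzyme, full-length and GST-purified after Sf-9 expression, was exposed to compound for 60 min at room temperature before a 20 min HDAC-Glo reaction.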

In order of rising inhibition at 10 µM:
1. Cn1ccc(N2Cc3ccc(-c4nnc(C(F)F)o4)cc3C2=O)n1 [Example 442, 6-(5-(difluoro-methyl)-1,3,4-oxadiazol-2-yl)-2-(1-methyl-1H-pyrazol-3-yl)isoindolin-1-one]  94%
2. Cn1cccc1CN1Cc2ncc(-c3nnc(C(F)F)o3)cc2C1=O [Example 438, 3-(5-(difluoro-methyl)-1,3,4-oxadiazol-2-yl)-6-((1-methyl-1H-pyrrol-2-yl)methyl)-6,7-dihydro-5H-pyrrolo [3,4-b]pyridin-5-one]  97%
3. O=C1c2cc(-c3nnc(C(F)F)o3)cnc2CN1Cc1nccs1 [Example 440, 3-(5-(difluoro-methyl)-1,3,4-oxadiazol-2-yl)-6-(1,3-thiazol-2-ylmethyl)-6,7-dihydro-5H-pyrrolo [3,4-b]pyridin-5-one]  97%
4. O=C1c2cc(-c3nnc(C(F)F)o3)cnc2CN1Cc1cc2ccccn2n1 [Example 457, 3-(5-(difluoro-methyl)-1,3,4-oxadiazol-2-yl)-6-(pyrazolo [1,5-a]pyridin-2-ylmethyl)-6,7-dihydro-5H-pyrrolo [3,4-b] pyridin-5-one]  97%
5. Cn1cc(-c2cn(C)nc2N2Cc3ccc(-c4nnc(C(F)F)o4)cc3C2=O)cn1 [Example 434, 6-(5-(difluoro-methyl)-1,3,4-oxadiazol-2-yl)-2-(1,1′-dimethyl-1H,1′H-4,4′-bipyrazol-3-yl) isoindolin-1-one]  98%
6. Cn1cc(-c2c(F)cccc2N2Cc3ccc(-c4nnc(C(F)F)o4)cc3C2=O)cn1 [Example 436, 6-(5-(difluoro-methyl)-1,3,4-oxadiazol-2-yl)-2-(3-fluoro-2-(1-methyl-1H-pyrazol-4-yl)phenyl)iso-indolin-1-one]  98%
7. O=C1c2cc(-c3nnc(C(F)F)o3)ccc2CN1c1ccc(F)cc1-n1cc(Cl)cn1 [Example 451, 2-(2-(4-chloro-1H-pyrazol-1-yl)-4-fluoro-phenyl)-6-(5-(difluoro-methyl)-1,3,4-oxadiazol-2-yl) isoindolin-1-one]  98%
8. O=C1c2cc(-c3nnc(C(F)F)o3)ccc2CN1c1ccnn1-c1ccccc1 [Example 435, 6-(5-(difluoro-methyl)-1,3,4-oxadiazol-2-yl)-2-(1-phenyl-1H-pyrazol-5-yl)isoindolin-1-one]  99%
9. O=C1CCCN1c1cc(F)ccc1N1Cc2ccc(-c3nnc(C(F)F)o3)cc2C1=O [Example 439, 6-(5-(difluoro-methyl)-1,3,4-oxadiazol-2-yl)-2-(4-fluoro-2-(2-oxo-pyrrolidin-1-yl)phenyl) isoindolin-1-one]  99%
10. O=C1c2cc(-c3nnc(C(F)F)o3)cnc2CN1Cc1ccccc1Br [Example 441, 6-(2-bromo-benzyl)-3-(5-(difluoro-methyl)-1,3,4-oxadiazol-2-yl)-6,7-dihydro-5H-pyrrolo [3,4-b]pyridin-5-one]  99%
11. O=C1c2cc(-c3nnc(C(F)F)o3)ccc2CN1c1ccc(F)cc1-n1cc(F)cn1 [Example 452, 6-(5-(difluoromethyl)-1,3,4-oxadiazol-2-yl)-2-(4-fluoro-2-(4-fluoro-1H-pyrazol-1-yl)phenyl)isoindolin-1-one]  99%
12. O=C1c2cc(-c3nnc(C(F)F)o3)ccc2CN1c1ccnn1-c1cccc(F)c1 [Example 453, 6-(5-(difluoro-methyl)-1,3,4-oxadiazol-2-yl)-2-(1-(3-fluoro-phenyl)-1H-pyrazol-5-yl) isoindolin-1-one]  99%
13. N#Cc1ccc(N2Cc3ccc(-c4nnc(C(F)F)o4)cc3C2=O)c(-c2ccccc2)c1 [Example 443, 6-(6-(5-(difluoro-methyl)-1,3,4-oxadiazol-2-yl)-1-oxo-1,3-dihydro-2H-isoindol-2-yl) biphenyl-3-carbonitrile]  100%
14. N#Cc1ccc(N2Cc3ccc(-c4nnc(C(F)F)o4)cc3C2=O)c(-c2cnn(C(F)F)c2)c1 [Example 444, 4-(6-(5-(difluoro-methyl)-1,3,4-oxadiazol-2-yl)-1-oxo-1,3-dihydro-2H-isoindol-2-yl)-3-(1-(difluoro-methyl)-1H-pyrazol-4-yl) benzonitrile]  100%
15. N#Cc1ccc(N2Cc3ccc(-c4nnc(C(F)F)o4)cc3C2=O)c(-c2cccc(F)c2)c1 [Example 445, 6-(6-(5-(difluoro-methyl)-1,3,4-oxadiazol-2-yl)-1-oxo-1,3-dihydro-2H-isoindol-2-yl)-3′-fluoro-biphenyl-3-carbonitrile]  100%
16. Cn1cc(C2CCOCC2)c(N2Cc3ccc(-c4nnc(C(F)F)o4)cc3C2=O)n1 [Example 446, 6-(5-(difluoro-methyl)-1,3,4-oxadiazol-2-yl)-2-(1-methyl-4-(tetrahydro-2H-pyran-4-yl)-1H-pyrazol-3-yl) isoindolin-1-one]  100%
17. COc1cccc(-c2cn(C)nc2N2Cc3ccc(-c4nnc(C(F)F)o4)cc3C2=O)c1 [Example 447, 6-(5-(difluoro-methyl)-1,3,4-oxadiazol-2-yl)-2-(4-(3-methoxy-phenyl)-1-methyl-1H-pyrazol-3-yl) isoindolin-1-one]  100%
18. Cn1cc(C2=CCOCC2)c(N2Cc3ccc(-c4nnc(C(F)F)o4)cc3C2=O)n1 [Example 448, 6-(5-(difluoro-methyl)-1,3,4-oxadiazol-2-yl)-2-(4-(3,6-dihydro-2H-pyran-4-yl)-1-methyl-1H-pyrazol-3-yl) isoindolin-1-one]  100%
19. CC(=O)N[C@@H]1CCCC[C@H]1N1Cc2ncc(-c3nnc(C(F)F)o3)cc2C1=O [Example 449, N-((1R,2R)-2-(3-(5-(difluoro-methyl)-1,3,4-oxadiazol-2-yl)-5-oxo-5,7-dihydro-6H-pyrrolo[3,4-b]pyridin-6-yl)cyclohexyl) acetamide]  100%
20. O=C1c2cc(-c3nnc(C(F)F)o3)ccc2CN1c1ccc(F)cc1-n1cc(C(F)(F)F)cn1 [Example 450, 6-(5-(difluoro-methyl)-1,3,4-oxadiazol-2-yl)-2-(4-fluoro-2-(4-(trifluoro-methyl)-1H-pyrazol-1-yl)phenyl) isoindolin-1-one]  100%
21. CCOc1ccccc1CN1Cc2ncc(-c3nnc(C(F)F)o3)cc2C1=O [Example 456, 3-(5-(difluoro-methyl)-1,3,4-oxadiazol-2-yl)-6-(2-ethoxy-benzyl)-6,7-dihydro-5H-pyrrolo[3,4-b] pyridin-5-one]  100%
22. O=C1c2cc(-c3nnc(C(F)F)o3)cnc2CN1Cc1cnn2ccccc12 [Example 458, 3-(5-(difluoro-methyl)-1,3,4-oxadiazol-2-yl)-6-(pyrazolo [1,5-a]pyridin-3-ylmethyl)-6,7-dihydro-5H-pyrrolo [3,4-b] pyridin-5-one]  100%
23. O=C1c2cc(-c3nnc(C(F)F)o3)ccc2CN1C1(Cc2ccccc2)CCOCC1 [Example 433, 2-(4-benzyl-tetrahydro-2H-pyran-4-yl)-6-(5-(difluoro-methyl)-1,3,4-oxadiazol-2-yl) isoindolin-1-one]  101%
24. O=C1c2cc(-c3nnc(C(F)F)o3)cnc2CN1Cc1ccccc1OC(F)(F)F [Example 437, 3-(5-(difluoro-methyl)-1,3,4-oxadiazol-2-yl)-6-(2-(trifluoro-methoxy)benzyl)-6,7-dihydro-5H-pyrrolo [3,4-b]pyridin-5-one]  101%
25. O=C1c2cc(-c3nnc(C(F)F)o3)cnc2CN1Cc1ccc(Cl)s1 [Example 454, 6-((5-chloro-2-thienyl)methyl)-3-(5-(difluoro-methyl)-1,3,4-oxadiazol-2-yl)-6,7-dihydro-5H-pyrrolo [3,4-b]pyridin-5-one]  101%
26. Cn1cc(-c2cc(F)cc(F)c2)c(N2Cc3ccc(-c4nnc(C(F)F)o4)cc3C2=O)n1 [Example 455, 6-(5-(difluoro-methyl)-1,3,4-oxadiazol-2-yl)-2-(4-(3,5-difluoro-phenyl)-1-methyl-1H-pyrazol-3-yl) isoindolin-1-one]  102%
